Results as given in patent US6548553B2, “Styryl sulfone anticancer agents” (Temple University-of the Commonwealth System of Higher …, priority 1997, dated 2003).

Experiments:
Type in all cases: cell-based
PC-3 cells = test: Trypan blue exclusion viability assay, prostate tumor cell line; design: unit of the concentration uncertain; settings: 48 hours
Protocol: (§1) The effect of FR-20 on the growth of normal and tumor cells of breast and prostate was examine utilizing nine cell lines: NIH/3T3 and HFL (normal fibroblast cell lines); MCF-7 and 361 ([…] breast tumor cell lines); BT-20, 435 and SKBR-3 ([…] breast tumor cell lines); LnCaP (androgen sensitive prostate tumor cell line); PC-3 and DU-145 (androgen insensitive prostate tumor cell line).
(§2) The cells were grown as in Example 22, A. FR-20 was dissolved in DMSO and added to the cells at 2.5 μM and 5.0 μM concentration. To control cells, DMSO was added equivalent to the volume of solvent (DMSO) present at the highest concentration of the compound. The activity of the compound was evaluated after 48 hours by Trypan blue exclusion. […] Nearly 50% of SKBR-3 and BT-20 cells were dead at 2.5 μM and 75% at 5.0 μM concentration of the compound. […] FRI-20 had profound effect on the viability of androgen-dependent LnCaP prostate tumor cell line when compared to androgen-independent DU-145 and PC-3 prostate cell lines. At […] FRI-20, 80% of LnCaP, 40% of PC-3 and 20% of DU-145 cells were killed. At […] FRI-20, 72% of LnCaP, 47% of PC-3 and 40% of DU-145 were killed (FIG. 3B).

[1] = system: LnCaP prostate tumor cell line; test: as above; design: unit of the concentration uncertain; settings: 48 hours
Protocol: as §1, §2

DU-145 cells = test: as above; design: unit of the concentration uncertain; settings: 48 hours
Protocol: as §1, §2

[2] = system: LnCaP, BT-20 and MCF-7 cells; test: Trypan blue exclusion viability/proliferation assay (dose and time course); settings: 2.5 mM (FIG. 1A) and 5.0 mM (FIG. 1B), 48 hours of treatment
[3] = Trypan blue exclusion viability assay, normal fibroblast cell lines; settings: mouse (NIH3T3), human (HFL), NIH3T3 and HFL cells (normal fibroblast cell lines), 2.5 and 5.0 μM, read-out: percent viability
Protocol: as §1, §2

[4] = Trypan blue exclusion viability assay, normal fibroblasts; design: viability at 48 h: dose or concentration left out as unconfirmed; settings: mouse, NIH3T3 cells (normal fibroblasts)
Protocol: (§3) The effect of the styryl sulfones on the growth of normal and tumor cells of breast and prostate was examine utilizing four cell lines, NIH3T3, MCF-7, BT-20 and LnCap. NIH/3T3 cells represent normal fibroblasts while LnCap is an androgen-dependent prostate tumor cell line. MCF-7 is an estrogen-responsive breast tumor cell line, while BT-20 is an estrogen-unresponsive breast tumor cell line. MCF-7 and BT-20 were grown in Dulbecco's modified Eagle's medium (DMEM) containing 10% fetal bovine serum supplemented with penicillin and streptomycin. LnCaP were cultured in RPMI with 10% fetal bovine serum containing penicillin and streptomycin. NIH3T3 cells were grown in DMEM containing 10% calf serum supplemented with penicillin and streptomycin. All cell cultures were maintained at 37° C. in a humidified atmosphere of 5% CO2.
(§4) The compounds identified in Tables 2, 3 and 4 inhibited cell growth and induced cell death, to varying degrees. The tables list the percent viable LnCap and MCF-7 cells treated with 5.0 μM compound.
(§5) The percentage of living cells was determined by Trypan blue exclusion. The control cells were treated with DMSO to determine the effect of solvent on cells. […] Under these conditions, only 2-3% of NIH3T3 cells were non-viable at both the concentrations. […] After 48 hours incubation, 60-75% of the LnCaP, BT-20 and MCF-7 cells were dead at […] FRI-20 concentration, whereas more than 90% of NIH3T3 cells were viable (FIG. 2A).

LnCaP and MCF-7 cells = test: Trypan blue exclusion viability assay, Tables 2-4; settings: 5.0 μM compound, 48 hours, read-out: % viable LnCaP and MCF-7 cells
Protocol: as §3
as §4, with “Cells were treated with test compound at 2.5 μM or 5.0 μM concentration and cell viability was determined after 48 hours by the Trypan blue exclusion method. The compounds” for “The compounds”

[5] = system: LnCaP, BT-20 and MCF-7 cells; test: Trypan blue exclusion viability/proliferation assay (dose and time course)
Protocol: as §3, §4
as §5, with “NIH3T3, MCF-7, BT-20 and LnCaP cells were treated with FRI-20 dissolved in DMSO to concentrations of 250 nM, 500 nM, 1 μM, 2.5 μM and 5 μM and examined for their proliferation and viability after 48 hours (FIG. 2A). The percentage” for “The percentage”
NIH/3T3, MCF-7, BT-20 and LnCap were treated with FRI-20 at 2.5 μM and the number of viable cells was determined at 12, 24, 48 and 72 hours by Trypan blue exclusion.

SMILES: O=S(=O)(/C=C/c1ccc(F)cc1)Cc1ccc(Cl)cc1 [Example 11, E-4-fluorostyryl 4-chlorobenzyl Sulfone]
- cells killed (PC-3 cells; 2.5 µM): 40%
- cells killed (PC-3 cells; 5.0 µM): 47%
- cells killed ([1]; 2.5 µM): 80%
- cells killed ([1]; 5.0 µM): 72%
- cells killed (DU-145 cells; 2.5 µM): 20%
- cells killed (DU-145 cells; 5.0 µM): 40%
- inhibition of growth and induction of death of LnCaP, BT-20 and MCF-7 cells [2]: substantially inhibit the growth and induce the death
- viability at 48 h [3]: 85 to 90%
- cytotoxicity at 48 h ([4]; 250 nM and 500 nM, 48 hours, read-out: non-viable NIH3T3 cells): 2 to 3%
- viability at 48 h, 5 µM ([4]; 5 μM): > 80%
- viability at 48 h ([4]; 48 hours incubation, read-out: viable NIH3T3 cells): > 80%
- viability at 5 µM (LnCaP and MCF-7 cells): 6%
- cell death ([5]; 250 nM, 48 hours): about 10%
- inhibition at 0.25 µM ([5]; 250 nM, 48 hours, read-out: inhibition in cell division compared to untreated cells): 15 to 20%
- cell death ([5]; 500 nM, 48 hours): 25-30%
- inhibition at 0.5 µM ([5]; 500 nM, 48 hours, read-out: inhibition in cell proliferation): 30 to 50%
- cell growth inhibition with loss of cell viability ([5]; 1 μM, 48 hours): greatly inhibited
- dead cells ([5]; 2.5 µM, 48 hours incubation): 60-75%
- dead cells ([5]; 2.5 μM, 72 hours of treatment): more than 95%
- cell death ([5]; 5 μM, 48 hours): ~90%
